# Laboratory results taken from patent US20160089439A1, “Prevention of Illicit Manufacutre of Methamphetamine from Pseudoephedrine Using Food Flavor Excipients” (Satara Pharmaceuticals, LLC, priority 2014, published 2016).
# Experiments:
# [1] = Reaction of excipient and pseudoephedrine with lithium in liquid ammonia, methamphetamine quantified; settings: for Relative percentage of methamphetamine formation, Li—NH3 Reduction: excipient 1.0 mmol + pseudoephedrine 1.0 mmol, pseudoephedrine only = 100
# [2] = Reaction of excipient and pseudoephedrine with red phosphorous and hydriodic acid, methamphetamine quantified; settings: excipient 1.0 mmol + pseudoephedrine 1.0 mmol, 57% aqueous hydriodic acid, 90-100° C.; pseudoephedrine only = 100
# [3] = species and route not given; cited from earlier work
SMILES,"Relative percentage of methamphetamine formation, Li—NH3 Reduction [1]","Relative percentage of methamphetamine formation, P—HI Reduction [2]","Inhibiting the conversion of pseudoephedrine to methamphetamine (in words) ([1]; summary of Table 1, both Li—NH3 and P—HI reductions)",LD50 [3]
"Cc1cnc(C)c(C)n1 [2,3,5-Trimethylpyrazine]",8%,20%,,
CC(=O)c1nccs1 [2-Acetylthiazole],<1%,,,
CCOc1cnc(C)cn1 [2-Ethoxy-5-methylpyrazine],7%,15%,,
CCOc1cncc(C)n1 [2-Ethoxy-6-methylpyrazine],4%,13%,,
COc1nccnc1CC(C)C [2-Isobutyl-3-methoxypyrazine],2%,27%,,
COc1nccnc1C [2-Methoxy-3-methylpyrazine],<1%,2.0%,,
CC(=O)c1cnccn1 [Acetylpyrazine],<<1%,6%,most effective among all of the pyrazine derivatives tested,> 4000 mg/kg
CC(C)COC(=O)c1ccccc1N [Isobutyl anthranilate],<1%,2.3%,,
